Reference: patent US11351173B2, “Substituted pyrrolo[1,2-a]pyrimidines and their use in the treatment of medical disorders” (Bial—R&D Investments, S.A., priority 2014, dated 2022)
In brackets after ≈: the same amount, converted by molar mass.

Tests used:
[1] = molecular target: T1, glucocerebrosidase (Gcase) (Homo sapiens, UniProt P04062); experiment: Glucocerebrosidase (Gcase) activation assay, 4-methylumbelliferyl-beta-D-glucopyranoside substrate, fluorescence readout; type: biochemical; conditions: for activation at 0.1 µM: read-out: Percent Gcase Activation, 0.1 μM Test Compound; for activation at 1 µM / Percent Gcase Activation, 1 μM Test Compound: test compound at 1.0 μM; for activation at 1 µM: read-out: Percent Gcase Activation, 1 μM Test Compound
T1 construct: micellar solution containing 10 nM GCase and 100 nM saposin C
T1 sequence (P04062 40-536): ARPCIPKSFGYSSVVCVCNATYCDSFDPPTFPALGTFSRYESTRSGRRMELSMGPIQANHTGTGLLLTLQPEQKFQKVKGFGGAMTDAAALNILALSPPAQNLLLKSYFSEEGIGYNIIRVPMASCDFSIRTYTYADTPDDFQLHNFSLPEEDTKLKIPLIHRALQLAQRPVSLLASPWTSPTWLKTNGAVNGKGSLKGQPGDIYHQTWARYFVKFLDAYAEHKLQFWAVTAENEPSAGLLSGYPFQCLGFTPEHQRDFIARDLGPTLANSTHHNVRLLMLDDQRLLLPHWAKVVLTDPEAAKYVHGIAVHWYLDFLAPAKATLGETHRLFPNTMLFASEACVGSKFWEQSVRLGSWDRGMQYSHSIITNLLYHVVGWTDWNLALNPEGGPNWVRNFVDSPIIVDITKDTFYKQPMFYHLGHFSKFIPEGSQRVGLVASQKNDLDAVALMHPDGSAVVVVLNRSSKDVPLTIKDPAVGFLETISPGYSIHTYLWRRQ
Protocol: The ability of exemplary compounds to activate glucocerebrosidase (Gcase) was measured.
A 484 μL aliquot of a 1.0 mg/mL solution of phosphatidylserine (PS) (Sigma P7769) in chloroform was evaporated under a stream of nitrogen for 1 hour. The lipid film was dissolved over 4 minutes of vigorous vortexing in 40 mL of 176 mM K2HPO4/50 mM citric acid (pH 4.7) containing 7.5 μL of triton X-100, resulting in a mixed micellar preparation with a composition of 0.32 mM triton and 0.37 mol % PS. 4-Methylumbelliferyl-beta-D-glucopyranoside (ACROS-337025000) was dissolved in the micellar solution to a final concentration of 2 mM for use as the reaction substrate.
Test compounds were diluted to the desired concentrations with dimethylsulfoxide (DMSO) from 10 mM stocks, and 0.41 μL of the DMSO compound mixture was added to 100 μL of micellar solution containing 10 nM GCase and 100 nM saposin C (Enzo ALX-201-262-C050). Pre-incubation was allowed to occur for 30 minutes at room temperature, after which the reaction was initiated by combining 25 μL of substrate solution with 25 μL of compound/GCase/saposin mixture. The reaction proceeded for 15 minutes at room temperature and was stopped by adding 150 μL of 1M glycine, pH 12.5. The endpoint of the reaction was monitored by measuring fluorescence intensity (excitation: 365 nm; emission: 440 nm) on a SpectraMax i3 instrument (Molecular Devices). Test compounds were screened at 1.0 and 0.1 μM final concentration, and subsequent 8-point dose response curves were obtained using 3-fold dilutions from a maximum final concentration of 5 μM.

[2] = Compound solubility in water; conditions: for solubility: water, Compound Solubility in Water

| Compound | activation at 0.1 µM ([1]; test compound at 0.1 μM) [%] | activation at 1 µM [1] [%] | solubility ([2]; in water) [µg/mL] | solubility [2] [µg/mL] | Percent Gcase Activation, 0.1 μM Test Compound ([1]; test compound at 0.1 μM) | Percent Gcase Activation, 1 μM Test Compound [1] | Compound Solubility in Water ([2]; in water) [µg/mL] |
| --- | --- | --- | --- | --- | --- | --- | --- |
| Cc1cc(C)n2ccc(C(=O)NC3CC=C(c4ncco4)CC3)c2n1 (centres unmarked) [III-247] | < 10 | 30 to 60 | 27.1 (≈ 80.6 µM) | – | – | – | – |
| Cc1cc(C)n2ccc(C(=O)NC3CCc4ccccc4C3)c2n1 (centres unmarked) [III-228] | > 20 | > 60 | 0.9 (≈ 2.82 µM) | – | – | – | – |
| CO[C@H]1CC[C@@H](C(C)(C)NC(=O)c2ccn3c(C)cc(C)nc23)CC1 [III-238] | 10 to 20 | > 60 | 1.6 (≈ 4.66 µM) | – | – | – | – |
| COc1ccccc1C(C)(C)NC(=O)c1ccn2c(C)cc(C)nc12 [III-233] | > 20 | > 60 | 2.1 (≈ 6.22 µM) | – | – | – | – |
| COc1cc(-c2cnco2)ccc1NC(=O)c1ccn2c(C)cc(C)nc12 [III-110] | > 20 | > 60 | – | 0.4 (≈ 1.1 µM) | – | – | – |
| Cc1cc(C)n2ccc(C(=O)NC3CC4CCC(C3)O4)c2n1 (centres unmarked) [III-169] | < 10 | < 30 | – | 29.3 (≈ 97.9 µM) | – | – | – |
| Cc1cc(C)n2ccc(C(=O)NC3c4ccccc4C4CC3C4)c2n1 (centres unmarked) [III-136] | > 20 | > 60 | – | 2.7 (≈ 8.15 µM) | – | – | – |
| CCCCCO[C@H]1CC[C@H](NC(=O)c2ccn3c(C)ccnc23)CC1 [III-260] | 10 to 20 | > 60 | 17.7 (≈ 51.5 µM) | – | – | – | – |
| CCCCO[C@H]1CC[C@H](NC(=O)c2ccn3c(C)cc(C(F)F)nc23)CC1 [III-67] | > 20 | > 60 | – | 4.7 (≈ 12.4 µM) | – | – | – |
| Cc1cc(C2CC2)n2ccc(C(=O)N[C@H]3CC[C@H](OCCCC(F)(F)F)CC3)c2n1 [III-46] | < 10 | > 60 | – | 1.7 (≈ 4.01 µM) | – | – | – |
| Cc1cc(C)n2ccc(C(=O)NC3(C)CCOc4cccc(F)c43)c2n1 (centres unmarked) [III-118] | > 20 | > 60 | – | 1.4 (≈ 3.96 µM) | – | – | – |
| Cc1ccnc2c(C(=O)NC3(C)CCOc4ccccc43)ccn12 (centres unmarked) [III-257] | 10 to 20 | > 60 | 28.9 (≈ 89.9 µM) | – | – | – | – |
| [2H]c1c(C([2H])([2H])[2H])nc2c(C(=O)Nc3ccc(-c4cocn4)cc3)cc([2H])n2c1C([2H])([2H])[2H] [III-158] | > 20 | > 60 | – | 0.07 (≈ 0.206 µM) | – | – | – |
| Cc1cc(C)n2ccc(C(=O)NC3CCCc4cnccc43)c2n1 (centres unmarked) [III-151] | < 10 | < 30 | – | 16.2 (≈ 50.6 µM) | – | – | – |
| Cc1cc(C)n2ccc(C(=O)NC3CCOc4cccc(F)c43)c2n1 (centres unmarked) [III-195] | > 20 | > 60 | – | 7 (≈ 20.6 µM) | – | – | – |
| Cc1cc(C)n2ccc(C(=O)Nc3ccc(Cl)c(COc4cccnc4)c3)c2n1 [III-279] | – | – | < 0.1 | – | *** (greater than 20% Gcase activation) | +++ (Gcase activation greater than 60%) | – |
| Cc1cc(C)n2ccc(C(=O)NC3CCC(Oc4cc(C)on4)C3)c2n1 (centres unmarked) [III-244] | – | – | – | – | – | +++ (Gcase activation greater than 60%) | – |
| Cc1cc(C)n2ccc(C(=O)N[C@H]3CCCc4ccccc43)c2n1 [III-100] | > 20 | > 60 | – | 0.7 (≈ 2.19 µM) | – | – | – |
| CC[C@@H](NC(=O)c1ccn2c(C)cc(C)nc12)c1ccccc1 [III-124] | > 20 | > 60 | – | 1.2 (≈ 3.9 µM) | – | – | – |
| Cc1cc(C(F)F)n2ccc(C(=O)Nc3ccc(-c4cocn4)cc3)c2n1 [III-27] | > 20 | 30 to 60 | – | 0.3 (≈ 0.814 µM) | – | – | – |
| Cc1cc(C(F)(F)F)nc2c(C(=O)NC3CCC4(CCCCO4)C3)ccn12 (centres unmarked) [III-248] | 10 to 20 | > 60 | – | – | – | – | 28.2 |

| Compound | activation at 0.1 µM ([1]; test compound at 0.1 μM) [%] | activation at 1 µM [1] [%] | solubility ([2]; in water) [µg/mL] | solubility [2] [µg/mL] | Percent Gcase Activation, 0.1 μM Test Compound ([1]; test compound at 0.1 μM) | Percent Gcase Activation, 1 μM Test Compound [1] | Compound Solubility in Water ([2]; in water) [µg/mL] |
| --- | --- | --- | --- | --- | --- | --- | --- |
| Cc1cc(C)n2ccc(C(=O)NC3CCOc4cc(F)ccc43)c2n1 (centres unmarked) [III-196] | 10 to 20 | > 60 | – | 4.2 (≈ 12.4 µM) | – | – | – |
| COCC#Cc1ccc(NC(=O)c2ccn3c(C)cc(C)nc23)cc1 [III-4] | > 20 | > 60 | – | < 1.5 | – | – | – |
| Cc1cc(C)n2ccc(C(=O)NC3CCCC4(CCCCO4)C3)c2n1 (centres unmarked) [III-80] | 10 to 20 | – | – | 8.7 (≈ 25.5 µM) | – | +++ (Gcase activation greater than 60%) | – |
| CO[C@H]1CC[C@H](NC(=O)c2ccn3c(C)cc(C)nc23)CC1 [III-89] | < 10 | < 30 | – | 23.9 (≈ 79.3 µM) | – | – | – |
| Cc1cc(C)n2ccc(C(=O)Nc3ccc(-c4cnn(C)c4)cc3)c2n1 [III-12] | > 20 | 30 to 60 | – | 0.06 (≈ 0.174 µM) | – | – | – |
| COCc1cc(C(C)C)n2ccc(C(=O)NC3(C)CCCc4ncncc43)c2n1 (centres unmarked) [III-32] | < 10 | < 30 | – | – | – | – | – |
| Cc1cc(C)n2ccc(C(=O)NC3CCC(Oc4cc(C)on4)C3)c2n1 (centres unmarked) [III-243] | < 10 | – | – | – | – | – | – |
| Cc1cc(C)n2ccc(C(=O)NC3CCCC(Oc4cccs4)C3)c2n1 (centres unmarked) [III-191] | > 20 | > 60 | – | – | – | – | – |
| Cc1cc(C(F)(F)F)nc2c(C(=O)NC3(C)CCCc4ncncc43)ccn12 (centres unmarked) [III-250] | < 10 | < 30 | – | – | – | – | – |
| Cc1cc(C)n2ccc(C(=O)N[C@@H](C)c3ccc(F)cc3)c2n1 [III-78] | > 20 | > 60 | – | – | – | – | – |
| Cc1cc(C)n2ccc(C(=O)NC3CCC4(CCOCC4)CC3)c2n1 [III-140] | < 10 | < 30 | – | – | – | – | – |
| Cc1cc(C)n2ccc(C(=O)Nc3ccc4c(c3)OCO4)c2n1 [III-280] | – | – | 0.2 (≈ 0.647 µM) | – | – | – | – |
| CCCOC1CC(CNC(=O)c2ccn3c(C)cc(C)nc23)C1 (centres unmarked) [III-239] | < 10 | < 30 | – | – | – | – | – |
| Cc1cc(C)n2ccc(C(=O)N[C@@H](C)c3ccccc3F)c2n1 [III-77] | > 20 | > 60 | – | – | – | – | – |
| Cc1cc(C)n2ccc(C(=O)Nc3ccc(N4CCCCC4)cc3)c2n1 [III-281] | – | – | < 0.1 | – | – | – | – |
| Cc1cc(C)n2ccc(C(=O)NC(C)(C)c3ccccc3Cl)c2n1 [III-79] | 10 to 20 | > 60 | – | – | – | – | – |
| COc1cc(C)nc2c(C(=O)Nc3ccc(-c4cocn4)cc3)ccn12 [III-51] | 10 to 20 | < 30 | – | – | – | – | – |
| COCC#Cc1ccc(NC(=O)c2ccn3c(C)cc(C)nc23)cn1 [III-282] | – | – | 0.7 (≈ 2.09 µM) | – | – | – | – |
| Cc1cc(C)n2ccc(C(=O)NC3(C)CCCc4ncncc43)c2n1 (centres unmarked) [III-175] | < 10 | < 30 | – | – | – | – | – |
| Cc1cc(C)n2ccc(C(=O)Nc3ccc4c(c3)C(n3oc(C)cc3=O)CC4)c2n1 (centres unmarked) [III-97] | < 10 | 30 to 60 | – | – | – | – | – |
| COCc1cc(C(C)C)nc2c(C(=O)NC3(C)CCCc4ncncc43)ccn12 (centres unmarked) [III-31] | < 10 | < 30 | – | – | – | – | – |
